Values of other authors as cited in patent US20170020838A1, “TREATMENT FOR RESPIRATORY DISEASE” (MUCOKINETICA LIMITED, priority 2014, published 2017).

Tested on: airway ENaC
Conditions: Bridges et al. 2001; cited from earlier work

aprotinin
effect on airway ENaC activity: Down regulation
